Measured values taken from ChEMBL document CHEMBL1145264, “Synthesis of tricyclic analogs of stephaoxocanidine and their evaluation as acetylcholinesterase inhibitors” (Bioorg Med Chem Lett, 2005).
Values joined by “and” are separate entries in the source; they are usually repeats but may differ in a detail not shown here. Equal values may be shown once.

The compounds below were run against Acetylcholinesterase (Homo sapiens, UniProt P22303).
Sequence of Acetylcholinesterase (P22303 whole entry): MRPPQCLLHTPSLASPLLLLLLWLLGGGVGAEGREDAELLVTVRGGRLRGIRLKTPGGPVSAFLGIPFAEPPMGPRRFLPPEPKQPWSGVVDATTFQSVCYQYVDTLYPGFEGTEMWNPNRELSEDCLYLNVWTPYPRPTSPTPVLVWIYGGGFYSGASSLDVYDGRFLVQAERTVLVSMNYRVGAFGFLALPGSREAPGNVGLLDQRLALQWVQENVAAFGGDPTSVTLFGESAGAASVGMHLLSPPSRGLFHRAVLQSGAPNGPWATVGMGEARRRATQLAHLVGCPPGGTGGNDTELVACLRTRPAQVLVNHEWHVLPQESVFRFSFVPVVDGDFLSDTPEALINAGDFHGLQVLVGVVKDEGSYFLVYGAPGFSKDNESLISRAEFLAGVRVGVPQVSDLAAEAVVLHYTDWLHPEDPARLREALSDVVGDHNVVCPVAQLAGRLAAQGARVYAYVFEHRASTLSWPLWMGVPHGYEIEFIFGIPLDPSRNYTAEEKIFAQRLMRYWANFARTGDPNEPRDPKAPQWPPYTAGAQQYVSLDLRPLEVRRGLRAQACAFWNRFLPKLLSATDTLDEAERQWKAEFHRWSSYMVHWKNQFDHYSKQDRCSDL
Description: Inhibitory concentration against acetylcholinesterase
C=CCC1(OC)OCc2c(OC)c(OC)cc3ccnc1c23 (stereo not drawn) was tested, and the IC50 was 100 µM and 99.6 µM.
COc1cc2ccnc3c2c(c1OC)COC3(O)CC(O)CO (stereo not drawn) gave an IC50 of 109 µM.
COc1cc2ccnc3c2c(c1OC)COC3(CC(O)CO)OC (stereo not drawn) was tested, and the IC50 was 96 µM and 95.4 µM.
C=CCC1(O)OCc2c(OC)c(OC)cc3ccnc1c23 (stereo not drawn) gave an IC50 of 174 µM.
With COc1cc2ccnc3c2c(c1OC)C(Br)OC3=O (stereo not drawn) the IC50 was 46 µM and 46.3 µM.
Compound COc1cc2ccnc3c2c(c1OC)COC3(CCCO)OC (stereo not drawn) has an IC50 of 137 µM.
With COc1cc2cc[n+](C)c3c2c(c1OC)C(Br)OC3=O (stereo not drawn) the IC50 was 105 µM and 120 µM.
In the case of COc1cc2ccnc3c2c(c1OC)COC3=O, the IC50 is reported as 19.6 µM.
